Reference: patent US6833146B2, “Powered beverage mix with rapidly dissolving calcium” (Unilab Pharmatech, Ltd., priority 2002, dated 2004)

How the values were obtained:
[1] = Simulated Hand Stirring Test (calcium sedimentation after stirring a unit dose in water); format: physicochemical; details: for Sweetener/calcium ratio to pass 60-second Simulated Hand Stirring Test: calcium hydroxide providing 300 mg calcium per unit dose, citric acid 0.96 gram per unit dose, 200 ml water at 25° C., 200 rpm; for Acid required/Dose: citric acid to pass 60-second test; for calcium base reacts fast enough with the acid for minimal calcium sedimentation: with appropriate amount of sugar, stirred for less than about 60 seconds by hand
Experimental: A magnetic stir bar (9.5×50.8 mm, catalogue no. 58948-980, VWR Spinbar®, USA) is placed in a 250-ml Pyrex® beaker (catalogue no. 1000-250, Corning, USA) to which 200 ml of water at 25° C. is added. The beaker is placed on top of a digital magnetic stirrer (Cole Parmer, USA) and the speed set at 200 rpm. A unit dose of a powdered mix is then added to the water and stirred for a given period of time, after which the beaker is removed and calcium sedimentation evaluated on a 1-10 scale, with 1 denoting no visible calcium sedimentation. A rating of 2 denoting very minimal calcium sedimentation, which is visually acceptable, is set as the minimum dissolution criterion.
Hereafter, this test will be referred to as the “Simulated Hand Stirring Test”. When the stirring time is 60 seconds, the test is referred to as the “60-second Simulated Hand Stirring Test”.

Solubility in water = format: physicochemical
[2] = cited from earlier work

Q: With `O=C(CO)[C@@H](O)[C@H](O)[C@H](O)CO` [Fructose] as the molecule, how does the “Sweetener/calcium ratio to pass 60-second Simulated Hand Stirring Test” value (from here on “Sweetener/calcium ratio”) [1] read?
A: The value was 45.

Q: What about the “Acid required/Dose” value ([1]; fructose On Mesh 20 (> 841 micron), 22 g fructose/dose, 500 mg calcium/dose) of the same molecule?
A: Its value is 2.0.

Q: What about the “Acid required/Dose” value ([1]; fructose On Mesh 20, 6 g fructose/dose, 150 mg calcium/dose) of the same molecule?
A: The value was 0.5.

Q: What about the “Acid required/Dose” value ([1]; fructose On Mesh 20, 16 g fructose/dose, 300 mg calcium/dose) of the same molecule?
A: Its value is 1.0.

Q: And the “Acid required/Dose” value ([1]; fructose Through mesh 40 (< 420 micron), 22 g fructose/dose, 500 mg calcium/dose)?
A: Its value is 2.0.

Q: What about the “Acid required/Dose” value ([1]; fructose Through mesh 40, 6 g fructose/dose, 150 mg calcium/dose) of the same molecule?
A: The value was 0.5.

Q: And the “Acid required/Dose” value ([1]; fructose Through mesh 40, 16 g fructose/dose, 300 mg calcium/dose)?
A: Its value is 1.0.

Q: For `OC[C@H]1O[C@@](CO)(O[C@H]2O[C@H](CO)[C@@H](O)[C@H](O)[C@H]2O)[C@@H](O)[C@@H]1O` [Sucrose], which “Sweetener/calcium ratio” value [1] is on record?
A: The value was 60.

Q: With `[Ca+2].[OH-].[OH-]` [Calcium hydroxide] as the molecule, how does the “calcium base reacts fast enough with the acid for minimal calcium sedimentation” value [1] read?
A: The value was “will react fast enough”.

Q: For `O=C(O)CC(O)C(=O)O` (stereo not drawn) [malic acid], which “times more soluble than calcium hydroxide” value (Solubility in water) is on record?
A: Its value is “about 300 times”.

Q: Which “Sweetener/calcium ratio” value [1] does the source give for `OC[C@@H](O)[C@@H](O)[C@H](O)[C@@H](O)CO` [Sorbitol, reference compound] here?
A: The value was 95.

Q: For `[O]=[Ca]` [Calcium oxide, reference compound], which “calcium base reacts fast enough with the acid for minimal calcium sedimentation” value [1] is on record?
A: The value was “may not react fast enough”.

Q: For `O=C(O)/C=C/C(=O)O` [Fumaric acid, reference compound], which “times more soluble than calcium hydroxide” value (Solubility in water) is on record?
A: Its value is “about four”.

Q: And the solubility in water [2]?
A: Its solubility in water is 0.63 gram per 100 ml of water.

Q: What about the “calcium sedimentation with fumaric acid as the acid” value ([1]; 555 mg calcium hydroxide (300 mg calcium), 26 grams sucrose, fumaric acid at three times the stoichiometric amount) of the same molecule?
A: Its value is “significant calcium sedimentation”.
